From ChEMBL document CHEMBL1150992, “Synthesis and preparation of an affinity chromatography column for the purification of cytosolic phospholipase A2” (Bioorg Med Chem Lett, 1995) come the findings set out here.

Assay [1] in a line: Inhibitory activity against cPLA2 was assessed from arachidonic acid (AA) release in cell free assay. Format: functional.
The nature of assay [2]: Inhibitory activity against cPLA2 was assessed from arachidonic acid (AA) release in U937 cells. As to conditions: U-937. Format: functional, cell-based.

SMILES strings stand for the structures.

By IC50 is commonly meant the concentration that inhibits the measured activity by half. A higher IC50 goes with lower potency. `CCCc1c(OCCCOc2ccc(C(CCCc3ccccc3)SCCC(=O)O)cc2)ccc(C(C)=O)c1O` (configuration not stated): the IC50 in assay [1] and in assay [2] was 1 µM in each case.
